Assay results taken from patent US20230027620A1, “PENTAPEPTIDE AND METHODS OF USE THEREOF” (THE BOARD OF TRUSTEES OF THE UNIVERSITY OF ILLINOIS, priority 2019, published 2023).
“Also recorded” adds a separate entry of the source.

Columns and labels:
HCLE cells = experiment: In vitro scratch assay, HCLE cells; assay type: cell-based, Human
Description: Cell Culture. Human corneal limbal epithelial (HCLE) cells were cultured in keratinocyte-serum free medium (K-SFM; ThermoScientific, Waltham, Mass.) supplemented with 0.2 ng/mL rhEGF (ThermoScientific, Waltham, Mass.), bovine pituitary extract (ThermoScientific, Waltham, Mass.) and 1% Amphotericin B (ThermoScientific, Waltham, Mass.). Standard cell culture conditions (37° C., 5% CO2, >95% humidity) were used during routine passages. The culture medium was replaced every 48 hours after seeding.
In Vitro Scratch Assay. HCE, HCLE, HELA and MCF-7 cells were cultured in a 24-well plate at 2.5×10^5 (cells/well) seeding density, and were grown to confluence on a 24-well plate. Subsequently, a straight-line scratch mark was made with a sterile P200 pipette tip. […] The wound area at each time-point was measured using Image J software (Image J 1.47v, NIH, Thornwood, Bethesda, Md.). Relative wound closure was calculated by dividing the closure of the treated wound by that of the untreated wound. […]
(§1) A cell sprouting assay using HCE cells embedded as a spot in growth factor reduced solubilized basement membrane sold under the tradename MATRIGEL® (Corning Life Sciences, Tewksbury, Mass.) was used to determine if HST5 could promote epithelial cell migration. […] Time-lapse microscopy was performed and wound areas were analyzed at different time points. […]

HCE cells = experiment: Cell sprouting assay, HCE cells embedded in MATRIGEL; assay type: cell-based, Human; details: 50 μM, 72 hours, compared to vehicle only control
Description: Cell Sprouting Assay. A cell sprouting assay was performed using HCE cells in a solubilized basement membrane sold under the tradename MATRIGEL® (reduced and diluted in MEM 1:1; Corning Life Sciences, Tewksbury, Mass.). HCE cells were embedded in the solubilized basement membrane at 5×10^5 cells/10 μL spot. The cell spotted plates were then exposed to reduced serum media (0.5% FBS) (untreated negative control), Hst5 (50 μM), or 10% FBS (positive control). HCE cell migration was then followed with time lapse microscopy and imaged at 4× (Image Express Micro; Molecular Devices, CA). Cell covered area at a given time point was measured using Image J.
A cell sprouting assay using HCE cells embedded as a spot in growth factor reduced solubilized basement membrane sold under the tradename MATRIGEL® (Corning Life Sciences, Tewksbury, Mass.) was used to determine if HST5 could promote epithelial cell migration. […] A standardized scratch assay using the HCLE cell line tested the effects of Hst5 on cell migration. HCLE cells were grown to confluence and mechanically scratched using a pipette tip. Cells were treated with different concentrations (20, 50, 80 and 100 μM) of Hst5 or left untreated as a control. Time-lapse microscopy was performed and wound areas were analyzed at different time points. […] The most significant increase in scratch closure rates was noticed at 50 μM. […]

p-ERK1/2 = experiment: Immunofluorescence imaging of p-ERK1/2 in scratched HCE monolayer; assay type: cell-based, Human; details: 80 μM, 45 minutes
Description: Immunofluorescence Imaging. HCE cells were seeded in 8-well chamber slide at 9×10^4 (cells/well) seeding density, and allowed to incubate to form a confluent monolayer. Subsequently, a straight-line scratch mark was made with a sterile P10 pipette tip. The cells were then washed with media to remove cellular debris. Wounded areas were subsequently left untreated or treated with Hst5, SP1 or SP2 at 80 μM concentrations in MEM media with 0.5% FBS for 45 minutes. Cells were then fixed with 4% paraformaldehyde for 30 minutes and permeabilized with 0.1% Triton X-100 for 5 minutes. After washing with PBS, cells were incubated at room temperature for 30 minutes with 5% bovine serum albumin (BSA) and 5% normal goat serum in PBS. Cells were subsequently incubated with primary antibodies diluted in 1% BSA against p-ERK1/2 (1:200) (Cell Signaling, Danver, Mass.) at 4° C. for 16 hours. After three washings with PBS, cells were incubated with fluorescein isothiocyanate-conjugated sheep anti-rabbit IgG antibody (BD Biosciences, San Jose, Calif.) (1:500) diluted in 1% BSA at room temperature for 60 minutes. After extensive washing with PBS, the cells were then stained with 4′,6-diamidino-2-phenylindole (DAPI; (Roche, Mannheim, GE) for 2 minutes for nuclear staining. The cells were mounted in Fluoro gel with Tris buffer (Electron Microscopy Sciences, Hattfield, Pa.) and observed under a confocal microscope (Zeiss LSM 710 Confocal Microscope, Oberkochen, Germany) using a 10× objective.
The level of activation/phosphorylation of ERK with and without wounding and with and without Hst5 application were investigated to determine whether the cellular signaling pathways underpinning the pro-migratory effects of Hst5 were similar to those of Hst1 in other epithelial cell types. Wounding causes an increased in phosphorylated form of ERK1/2 (p-ERK1/2). Immunolocalization was used to determine whether Hst5 application to a scratched sheet of epithelium would affect pERK1/2 levels.

[1] = system: Human corneal epithelial (HCE) cells; experiment: In vitro scratch assay, HCE cells; assay type: cell-based; details: compared with scrambled peptide control (SP1)
Description: Human corneal epithelial (HCE) cells were cultured in a Medium Essential Media (MEM; Gibco, Life Technologies, Carlsbad, Calif.). HeLa cells were maintained in Dulbecco's Modified Eagle's Medium (DMEM; Life Technologies, Grand Island, N.Y.). Both media were supplemented with 10% fetal bovine serum (Gibco, Life Technologies, Carlsbad, Calif.) and 1% penicillin-streptomycin (Gibco, Life Technologies, Carlsbad, Calif.). […]
In Vitro Scratch Assay. […] The wound area at each time-point was measured using Image J software (Image J 1.47v, NIH, Thornwood, Bethesda, Md.). Relative wound closure was calculated by dividing the closure of the treated wound by that of the untreated wound. […]
as §1
Wound closure rates of the three salt forms were also analyzed in accordance with the methods disclosed herein. In particular, human corneal epithelial cells were scratched using standardized scratch assays and rates of wound healing were measured after application of the acetic acid, hydrochloride and trifluoroacetate salt forms of SHRGY (SEQ ID NO:2).

DSHAKRHHGYKRKFHEKHHSHRGY [Hst5]
rates of in vitro scratch assay closure (HCLE cells; 20, 50, 80 and 100 μM, compared with untreated control): dose-dependent increase in rates of in vitro scratch assay closure
concentration of most significant increase in scratch closure rates (HCLE cells; tested at 20, 50, 80 and 100 μM): 50 µM
cell migration (cell sprouting) (HCE cells): statistically significant increase in cell migration
pERK1/2 immunolocalization / signal intensity (p-ERK1/2): increased signal intensity of phosphorylated ERK1/2; also recorded: elevated immunolocalization of pERK1/2
concentration of statistically significant peak effect on scratch closure [1]: 80 µM
